Among the data in PubChem BioAssay AID290 (DTP/NCI, 2004) are T/C values, retold here.

The subject of the assay is mice, P1798 lymphosarcoma sc, survival or tumor weight T/C. In words: NCI In Vivo Anticancer Drug Screen. Data for tumor model P1798 Lymphosarcoma (subcutaneous) in unknown mice. As to the method: The antitumor activity of compounds was measured in mice bearing transplantable tumors. Survival or tumor size were measured and the results are expressed as the measurement made in the treated group (T) divided by the measurement made in the vehicle treated control group (C). The tumor model used in this assay is P1798 Lymphosarcoma (subcutaneous) in unknown mice

[1] abbreviates: endpoint: mean tumor weight, dose: 2.5 mg/kg/injection, schedule: Q01DX010 (ip), vehicle: saline, higher = larger tumour.
Setting [2] is: endpoint: mean tumor weight, dose: 5.0 mg/kg/injection, schedule: Q01DX010 (ip), vehicle: saline, higher = larger tumour.
Setting [3] is: endpoint: mean tumor weight, dose: 10.0 mg/kg/injection, schedule: Q01DX010 (ip), vehicle: saline, higher = larger tumour.
Setting [4] is: endpoint: mean tumor weight, dose: 5.0 mg/kg/injection, schedule: Q01DX010 (ip), vehicle: carboxymethylcellulose (CMC), higher = larger tumour.
Where [5] appears, read: endpoint: mean tumor weight, dose: 1.25 mg/kg/injection, schedule: Q01DX010 (ip), vehicle: saline, higher = larger tumour.

“And” between values parts separate entries of the source, which are not always exact repeats. Equal values may be shown once. Results filed as inconclusive are left out.

With `COc1cccc2c1C(=O)c1c(O)c3c(c(O)c1C2=O)C[C@@](O)(C(=O)CO)C[C@@H]3OC1CC(N)C(O)C(C)O1` (some centres undefined), the T/C by setting is: (endpoint: median survival time, dose: 0.25 mg/kg/injection, schedule: Q01DX010 (ip), vehicle: water, higher = longer survival) 84 % of control; (endpoint: median survival time, dose: 0.5 mg/kg/injection, schedule: Q01DX010 (ip), vehicle: water, higher = longer survival) 102 % of control; (endpoint: median survival time, dose: 1.0 mg/kg/injection, schedule: Q01DX010 (ip), vehicle: water, higher = longer survival) 93 % of control; (endpoint: median survival time, dose: 1.0 mg/kg/injection, schedule: Q04DX007 (ip), vehicle: water, higher = longer survival) 108 % of control; (endpoint: median survival time, dose: 2.0 mg/kg/injection, schedule: Q01DX010 (ip), vehicle: water, higher = longer survival) 36 % of control; (endpoint: median survival time, dose: 2.0 mg/kg/injection, schedule: Q04DX007 (ip), vehicle: water, higher = longer survival) 107 % of control. Moreover, the T/C (endpoint: median survival time, dose: 4.0 mg/kg/injection, schedule: Q01DX010 (ip), vehicle: water, higher = longer survival) is 28 % of control.

As for `Cn1cnc([N+](=O)[O-])c1Sc1nc(N)nc2nc[nH]c12`, the T/C reads like this: under setting [1], 53 % of control; under setting [2], 62 % of control; under setting [3], 37 % of control.

Take `Cn1c(O)c(N=NC(N)=S)c2ccccc21`: the T/C (endpoint: mean tumor weight, dose: 25.0 mg/kg/injection, schedule: Q01DX011 (ip), vehicle: carboxymethylcellulose (CMC), higher = larger tumour) is 206 % of control; the T/C (endpoint: mean tumor weight, dose: 50.0 mg/kg/injection, schedule: Q01DX011 (ip), vehicle: carboxymethylcellulose (CMC), higher = larger tumour) was 117 % of control; the T/C (endpoint: mean tumor weight, dose: 100.0 mg/kg/injection, schedule: Q01DX011 (ip), vehicle: carboxymethylcellulose (CMC), higher = larger tumour) was 87 % of control.

For the compound `Nc1ncnc2c1ncn2C1OC(CO)CC1O` (centres undefined), the T/C (endpoint: mean tumor weight, dose: 37.5 mg/kg/injection, schedule: Q01DX010 (ip), vehicle: carboxymethylcellulose (CMC), higher = larger tumour) was 111 % of control and the T/C (endpoint: mean tumor weight, dose: 75.0 mg/kg/injection, schedule: Q01DX010 (ip), vehicle: carboxymethylcellulose (CMC), higher = larger tumour) was 85 % of control.

Turning to `N#[N+]c1cnc([O-])[nH]c1=O`, the T/C is 105 % of control under setting [4] and 47 % of control (endpoint: mean tumor weight, dose: 10.0 mg/kg/injection, schedule: Q01DX010 (ip), vehicle: carboxymethylcellulose (CMC), higher = larger tumour).

Take `O=c1cnn(C2OC(CO)C(O)C2O)c(=O)[nH]1` (centres undefined): the T/C is, setting by setting: (endpoint: mean tumor weight, dose: 125.0 mg/kg/injection, schedule: Q01DX010 (ip), vehicle: water, higher = larger tumour) 93 % of control; (endpoint: mean tumor weight, dose: 250.0 mg/kg/injection, schedule: Q01DX010 (ip), vehicle: water, higher = larger tumour) 67 % of control; (endpoint: mean tumor weight, dose: 500.0 mg/kg/injection, schedule: Q01DX010 (ip), vehicle: water, higher = larger tumour) 77 % of control; (endpoint: mean tumor weight, dose: 1000.0 mg/kg/injection, schedule: Q01DX010 (ip), vehicle: water, higher = larger tumour) 75 % of control.

Consider `CCCSc1ncnc2nc[nH]c12`, for which the T/C by setting is: (endpoint: mean tumor weight, dose: 31.0 mg/kg/injection, schedule: Q01DX010 (ip), vehicle: carboxymethylcellulose (CMC), higher = larger tumour) 84 % of control; (endpoint: mean tumor weight, dose: 62.0 mg/kg/injection, schedule: Q01DX010 (ip), vehicle: carboxymethylcellulose (CMC), higher = larger tumour) 70 % of control; (endpoint: mean tumor weight, dose: 125.0 mg/kg/injection, schedule: Q01DX010 (ip), vehicle: carboxymethylcellulose (CMC), higher = larger tumour) 51 % of control and 52 % of control.

`NC(Cc1ccc(N(CCCl)CCCl)cc1)C(=O)O` (centres undefined): the T/C by setting is: (endpoint: mean tumor weight, dose: 0.5 mg/kg/injection, schedule: Q01DX010 (ip), vehicle: saline, higher = larger tumour) 86 % of control; (endpoint: mean tumor weight, dose: 0.63 mg/kg/injection, schedule: Q01DX010 (ip), vehicle: carboxymethylcellulose (CMC), higher = larger tumour) 117 % of control; (endpoint: mean tumor weight, dose: 1.0 mg/kg/injection, schedule: Q01DX010 (ip), vehicle: saline, higher = larger tumour) 67 % of control; (endpoint: mean tumor weight, dose: 1.25 mg/kg/injection, schedule: Q01DX010 (ip), vehicle: carboxymethylcellulose (CMC), higher = larger tumour) 110 % of control; under setting [5], 89 % of control; (endpoint: mean tumor weight, dose: 2.0 mg/kg/injection, schedule: Q01DX010 (ip), vehicle: saline, higher = larger tumour) 77 % of control. In addition, the T/C reads like this: (endpoint: mean tumor weight, dose: 4.0 mg/kg/injection, schedule: Q01DX010 (ip), vehicle: saline, higher = larger tumour) 60 % of control; under setting [4], 40 % of control; under setting [2], 36 % of control; under setting [3], 5 % of control.

As for `NC(=O)c1ccc(N)nc1`, the T/C was 71 % of control (endpoint: mean tumor weight, dose: 0.63 mg/kg/injection, schedule: Q01DX010 (ip), vehicle: saline, higher = larger tumour); 82 % of control under setting [5]; 52 % of control under setting [1]; 21 % of control under setting [2].

Consider `Nc1nc(SCc2ccccc2)c2[nH]cnc2n1`, for which the T/C runs as follows: (endpoint: mean tumor weight, dose: 4.7 mg/kg/injection, schedule: Q01DX010 (ip), vehicle: carboxymethylcellulose (CMC), higher = larger tumour) 42 % of control; (endpoint: mean tumor weight, dose: 9.4 mg/kg/injection, schedule: Q01DX010 (ip), vehicle: carboxymethylcellulose (CMC), higher = larger tumour) 51 % of control.

On to `CCC1=C(c2cc(Cl)c3ccccc3c2OCC(=O)O)OC(CC)(C(=O)c2cc(Cl)c3ccccc3c2OCC(=O)O)CC1` (centres undefined), for which the T/C was 94 % of control (endpoint: mean tumor weight, dose: 30.0 mg/kg/injection, schedule: Q01DX010 (ip), vehicle: steriod suspending solution, higher = larger tumour); 112 % of control (endpoint: mean tumor weight, dose: 60.0 mg/kg/injection, schedule: Q01DX010 (ip), vehicle: steriod suspending solution, higher = larger tumour); 65 % of control (endpoint: mean tumor weight, dose: 120.0 mg/kg/injection, schedule: Q01DX010 (ip), vehicle: steriod suspending solution, higher = larger tumour); 85 % of control (endpoint: mean tumor weight, dose: 240.0 mg/kg/injection, schedule: Q01DX010 (ip), vehicle: steriod suspending solution, higher = larger tumour).

As for `CC(C)(c1ccccc1)c1ccc(O)cc1`, the T/C reads like this: (endpoint: mean tumor weight, dose: 50.0 mg/kg/injection, schedule: Q01DX010 (ip), vehicle: carboxymethylcellulose (CMC), higher = larger tumour) 91 % of control; (endpoint: mean tumor weight, dose: 100.0 mg/kg/injection, schedule: Q01DX010 (ip), vehicle: carboxymethylcellulose (CMC), higher = larger tumour) 109 % of control; (endpoint: mean tumor weight, dose: 200.0 mg/kg/injection, schedule: Q01DX010 (ip), vehicle: carboxymethylcellulose (CMC), higher = larger tumour) 108 % of control.

Consider `CC(C)=C(Br)CC[C@@H](C)[C@H]1CC[C@@]2(C)C3=C(CC[C@]12C)[C@@]1(C)CC[C@H](O)C(C)(C)[C@@H]1CC3`, for which the T/C is 151 % of control (endpoint: mean tumor weight, dose: 100.0 mg/kg/injection, schedule: Q01DX011 (sc), vehicle: steriod suspending solution, higher = larger tumour) and 186 % of control (endpoint: mean tumor weight, dose: 200.0 mg/kg/injection, schedule: Q01DX011 (sc), vehicle: steriod suspending solution, higher = larger tumour).
